Drawing on patent US7445790B2, “External preparations for skin” (Shiseido Company, Ltd., priority 2002, dated 2008), this text covers IOB value and Solubility for four compounds.

Series [1] in a line: IOB value of the oil component. In kind it is physicochemical. Conditions: obtained oil component.
Series [2] in a line: Solubility of a slightly soluble triazine-type ultraviolet absorbent in oil components at 0° C. The format is physicochemical. The note with it: concentration (mass percentage) in a saturated solution at 0° C. of 2,4-bis{[4-(2-ethylhexyloxy)-2-hydroxy]phenyl}-6-(4-methoxyphenyl)1,3,5-triazine in the oil component.
Description: (§1) For the slightly soluble ultraviolet absorbent, a triazine-type ultraviolet absorbent 2,4-bis{[4-(2-ethylhexyloxy)-2-hydroxy]phenyl}-6-(4-methoxyphenyl)1,3,5-triazine was used.
This oil component is a mixture of alkyl benzoates having 12-15 carbon atoms.
as §1

Regarding `CC(C)CCCC(C)CCOC(=O)c1ccccc1` (centres unmarked) [3,7-dimethyloctyl benzoate], in series [1], the IOB value stood at 0.23.
Regarding `C[Si]1(C)O[Si](C)(C)O[Si](C)(C)O[Si](C)(C)O[Si](C)(C)O1` [Decamethyl cyclopentane siloxane], the Solubility in series [2] (Table 1-4) and in series [2] (Table 2-1) was 0% each time.
Turning to `CC(CCOC(=O)c1ccccc1)CC(C)(C)C` (centres unmarked) [3,5,5-trimethylhexyl benzoate], the IOB value in series [1] was 0.26.
`CCCCC(CC)COC(=O)c1ccccc1` (centres unmarked) [2-ethylhexyl benzoate] came in with an IOB value in series [1] of 0.26.
